Source: the NIST ThermoML archive (doi:10.1016/j.jct.2004.10.011)

Assay: xn = mol fraction of the nth substance listed
Conditions: Liquid, Vibrating tube method, x1 = 1

Cc1ccccc1 [toluene] + CCC(=O)c1ccccc1
mass density [kg/m3]
Conditions | 298.15 K | 308.15 K | 318.15 K | 328.15 K
100 kPa | 862.1 | 853 | 843.8 | 834.5
2130 kPa | 863.6 | 854.5 | 845.6 | 836.5
4150 kPa | 865.2 | 856.2 | 847.3 | 838.3
6180 kPa | 866.7 | 857.8 | 849 | 840.1
8210 kPa | 868.2 | 859.3 | 850.6 | 841.8
10230 kPa | 869.6 | 860.9 | 852.3 | 843.5
11250 kPa | 870.4 | 861.7 | 853.1 | 844.4
12260 kPa | 871.1 | 862.4 | 853.9 | 845.2
14290 kPa | 872.5 | 863.9 | 855.4 | 846.9
16310 kPa | 873.9 | 865.4 | 857 | 848.6
18340 kPa | 875.3 | 866.8 | 858.5 | 850.1
20370 kPa | 876.7 | 868.2 | 860 | 851.7
22390 kPa | 878 | 869.6 | 861.5 | 853.3
24420 kPa | 879.3 | 871 | 862.9 | 854.8
26450 kPa | 880.6 | 872.4 | 864.4 | 856.3
28470 kPa | 881.9 | 873.8 | 865.8 | 857.8
29490 kPa | 882.5 | 874.4 | 866.5 | 858.5
30500 kPa | 883.2 | 875 | 867.2 | 859.3
32530 kPa | 884.4 | 876.3 | 868.5 | 860.7
34550 kPa | 885.6 | 877.6 | 869.9 | 862.1
36580 kPa | 886.8 | 878.9 | 871.2 | 863.5
38600 kPa | 888 | 880.1 | 872.5 | 864.9
39620 kPa | 888.6 | 880.7 | 873.2 | 865.5
